# Measured values reported in publication PMC9572546, “Discovery of Novel c-Jun N-Terminal Kinase 1 Inhibitors from Natural Products: Integrating Artificial Intelligence with Structure-Based Virtual Screening and Biological Evaluation” (Molecules, 2022).
# Biological target: T1, c-Jun N-terminal kinase 1 (JNK1) (Homo sapiens, UniProt P45983)
# T1 construct: gene MAPK8
# Assay: LANCE Ultra TR-FRET kinase assay (PerkinElmer), 10-point two-fold dilution
# Assay type: biochemical
# T1 sequence (P45983 whole entry): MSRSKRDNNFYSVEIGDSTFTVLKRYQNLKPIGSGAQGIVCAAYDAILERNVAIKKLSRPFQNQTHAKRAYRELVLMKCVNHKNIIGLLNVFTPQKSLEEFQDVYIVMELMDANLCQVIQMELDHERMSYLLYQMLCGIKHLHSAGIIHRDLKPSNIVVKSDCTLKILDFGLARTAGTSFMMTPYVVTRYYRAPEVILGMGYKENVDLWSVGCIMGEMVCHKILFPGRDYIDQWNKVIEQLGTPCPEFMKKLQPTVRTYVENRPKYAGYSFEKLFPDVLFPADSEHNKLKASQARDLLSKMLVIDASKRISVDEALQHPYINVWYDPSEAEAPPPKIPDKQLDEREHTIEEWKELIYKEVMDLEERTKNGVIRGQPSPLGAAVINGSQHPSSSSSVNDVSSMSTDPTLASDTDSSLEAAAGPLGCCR
structure (smiles),measurement,value
COc1cc(-c2cc(=O)c3c(O)cc(O)cc3o2)cc(OC)c1O [Tricin],IC50,17.7 µM
